The values that follow come from PubChem BioAssay (NCI).

Where “and” joins values, the source holds several entries; their conditions need not be identical. Equal values may be shown once.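 Step 1: Grow cells in 96-well plates. Step 2: Expose to compound for 48 hours at 5 concentrations. Step 3: Interpolate endpoints linearly; if unreached, use highest concentration. Abbreviation: GI50, concentration required for 50% inhibition of growth. At the TGI there is no net growth.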

Test systems include A498 renal; CCRF-CEM leukemia; HOP-62 NSCLC; IGROV1 ovarian; MDA-MB-231 breast; MOLT-4 leukemia; NCI/ADR-RES ovarian; SK-MEL-5 melanoma; TK-10 renal; UO-31 renal.
Common to all, as to experiment: NCI-60 cell line screen, 48 h

`CC(C)(C)OC(=O)Nc1ccc2c(c1)C(NC(=O)Nc1cccc(C#N)c1)CC(C)(C)O2` (stereo not given): the GI50 in the assay on A498 renal was 7.14 µM; in the assay on CCRF-CEM leukemia, 3.8 µM; with HOP-62 NSCLC it was 5 µM; with IGROV1 ovarian, 4.44 µM; in the assay on MDA-MB-231 breast it was 4.17 µM; in the assay with MOLT-4 leukemia, 1.96 µM. Moreover, the GI50 is 2.78 µM with NCI/ADR-RES ovarian, 0.463 µM in the assay on SK-MEL-5 melanoma, 6.14 µM in the assay on TK-10 renal and 3.36 µM in the assay on UO-31 renal. Further, the TGI with A498 renal was above 100 µM; in the assay on CCRF-CEM leukemia, above 100 µM; in the assay on HOP-62 NSCLC, above 100 µM; in the assay on IGROV1 ovarian it was above 100 µM; with MDA-MB-231 breast, above 50.7 µM; with MOLT-4 leukemia, above 64.6 µM. Moreover, the TGI is above 64.6 µM in the assay on NCI/ADR-RES ovarian, 3.15 µM with SK-MEL-5 melanoma, above 100 µM in the assay with TK-10 renal and above 100 µM with UO-31 renal.
Regarding `CCC1=C(CC2NCCc3ccccc32)CC2c3cc(OC)c(OC)cc3CCN2C1` (stereo not given), the GI50 in the assay with A498 renal is 4.25 µM; in the assay with CCRF-CEM leukemia, 3.81 µM; in the assay on HOP-62 NSCLC, 3.6 µM; in the assay on IGROV1 ovarian, 4.39 µM; in the assay on MDA-MB-231 breast, 3.4 µM; with MOLT-4 leukemia, 3.39 µM. Besides, the GI50 was 6.7 µM in the assay with NCI/ADR-RES ovarian, 3.39 µM in the assay on SK-MEL-5 melanoma, 6.08 µM in the assay on TK-10 renal and 4.73 µM in the assay with UO-31 renal. Moreover, the TGI in the assay with A498 renal is 19.6 µM and 5.8 µM; in the assay on CCRF-CEM leukemia, 18.6 µM and 4.53 µM; in the assay on HOP-62 NSCLC, 17.1 µM and 4.65 µM; in the assay on IGROV1 ovarian it was 21.6 µM and 19 µM; in the assay on MDA-MB-231 breast, 14.4 µM and 1.75 µM; in the assay on MOLT-4 leukemia it was 13.8 µM and 2.2 µM. Besides, the TGI with NCI/ADR-RES ovarian is 50.9 µM and 12.4 µM; in the assay with SK-MEL-5 melanoma, 13.1 µM and 2.7 µM; with TK-10 renal, 30.4 µM and 3.83 µM; with UO-31 renal, 29.7 µM and 3.35 µM.
Take `COc1cc(C(=O)c2cocc2C(=O)c2ccc3c(c2)OCO3)cc(OC)c1OC`: the TGI was 26.2 µM in the assay with A498 renal; above 51.6 µM in the assay on CCRF-CEM leukemia; 31.3 µM in the assay with HOP-62 NSCLC; 48.5 µM in the assay with IGROV1 ovarian; 48.5 µM with MDA-MB-231 breast; above 74.7 µM in the assay with MOLT-4 leukemia. In addition, the TGI in the assay on NCI/ADR-RES ovarian was determined as 1.3 µM; with SK-MEL-5 melanoma it was 25.5 µM; in the assay with TK-10 renal it was 47.2 µM; in the assay with UO-31 renal it was 33.9 µM.
As for `CC(SCc1ccccc1)C(=O)O` (stereo not given), the TGI with A498 renal, with CCRF-CEM leukemia, in the assay with HOP-62 NSCLC, in the assay on IGROV1 ovarian, with MDA-MB-231 breast and in the assay with MOLT-4 leukemia was above 100 µM in each case. Moreover, the TGI in the assay on NCI/ADR-RES ovarian, with SK-MEL-5 melanoma, in the assay with TK-10 renal and with UO-31 renal was above 100 µM each time.
For the compound `O=c1/c(=N\Nc2ccccc2)c2cccc3ccc4cccc1c4c32`, the TGI in the assay on A498 renal, in the assay with CCRF-CEM leukemia, in the assay on HOP-62 NSCLC, in the assay on IGROV1 ovarian, with MDA-MB-231 breast and in the assay with MOLT-4 leukemia was above 100 µM in each case. Also, the TGI with NCI/ADR-RES ovarian, with SK-MEL-5 melanoma, in the assay with TK-10 renal and in the assay with UO-31 renal was above 100 µM in each case.
For `CCn1c(-c2nonc2N)nc2c(N3CCCC3)nccc21`, the GI50 in the assay with A498 renal was 8.39 µM; in the assay on CCRF-CEM leukemia it was 18.4 µM; with HOP-62 NSCLC it was 12.3 µM; in the assay with IGROV1 ovarian it was 12 µM; with MDA-MB-231 breast, above 18.8 µM; in the assay on MOLT-4 leukemia it was 10.5 µM. The GI50 is 10.7 µM with NCI/ADR-RES ovarian, 19 µM in the assay with SK-MEL-5 melanoma, 9.31 µM in the assay with TK-10 renal and 7.48 µM in the assay on UO-31 renal. For the same compound, the TGI in the assay with A498 renal, in the assay with CCRF-CEM leukemia, in the assay with HOP-62 NSCLC, with IGROV1 ovarian, with MDA-MB-231 breast and with MOLT-4 leukemia was above 25 µM each time. Also, the TGI in the assay on NCI/ADR-RES ovarian, in the assay with SK-MEL-5 melanoma, in the assay with TK-10 renal and in the assay on UO-31 renal was above 25 µM in each case.
Turning to `O=C(/C=C/C12c3ccccc3C(c3ccccc31)C1C(=O)NC(=O)C12)c1ccccc1` (stereo not given), the GI50 is 1.42 µM with A498 renal; 2.17 µM with CCRF-CEM leukemia; 2.17 µM in the assay with HOP-62 NSCLC; 2.03 µM with IGROV1 ovarian; 2.96 µM in the assay with MDA-MB-231 breast; 2.17 µM in the assay on MOLT-4 leukemia. Also, the GI50 with NCI/ADR-RES ovarian is 1.92 µM; in the assay with SK-MEL-5 melanoma, 1.72 µM; in the assay with TK-10 renal, 2.79 µM; with UO-31 renal, 1.53 µM. Moreover, the TGI turned out to be 2.82 µM with A498 renal; 12.5 µM in the assay with CCRF-CEM leukemia; 4.38 µM in the assay with HOP-62 NSCLC; 4.52 µM with IGROV1 ovarian; 13.1 µM with MDA-MB-231 breast; 11.6 µM with MOLT-4 leukemia. Further, the TGI in the assay with NCI/ADR-RES ovarian stood at 5.73 µM; in the assay with SK-MEL-5 melanoma, 3.1 µM; in the assay with TK-10 renal it was 6.34 µM; in the assay on UO-31 renal, 2.88 µM.
Regarding `CC1(C)CCC[C@]2(C)c3ccccc3C(=O)CC12` (stereo not given in full), the GI50 in the assay with A498 renal was 26 µM; with CCRF-CEM leukemia it was 31.7 µM; in the assay with HOP-62 NSCLC, above 100 µM; in the assay with IGROV1 ovarian, 45.3 µM; with MDA-MB-231 breast, 30.8 µM; in the assay with MOLT-4 leukemia, 75.8 µM. The GI50 in the assay on NCI/ADR-RES ovarian was 20.3 µM; with SK-MEL-5 melanoma, 18 µM; in the assay with TK-10 renal, 69 µM; in the assay with UO-31 renal, 53.1 µM. Also, the TGI is 71.4 µM in the assay with A498 renal; above 100 µM in the assay on CCRF-CEM leukemia; above 100 µM with HOP-62 NSCLC; above 100 µM in the assay on IGROV1 ovarian; above 100 µM in the assay with MDA-MB-231 breast; above 100 µM in the assay on MOLT-4 leukemia. Further, the TGI in the assay on NCI/ADR-RES ovarian was 91.1 µM; with SK-MEL-5 melanoma, 46.4 µM; in the assay on TK-10 renal, above 100 µM; in the assay on UO-31 renal, above 100 µM.
